The record followed here is ChEMBL document CHEMBL6096699, “Tröger's Base as a Potential Bridge to Type-I Photosensitizers: Mechanism and Antitumor Applications” (J Med Chem, 2025).

The source made the active and inactive calls. The rule behind the calls is not given here.

Data set [1] relates to A549. As to the kind of experiment: Inhibition of cell migration in human A549 cells assessed as appearance of loose cells at 0.25 uM preincubated for 12 hrs followed by incubation under dark condition and measured after 48 hrs by wound healing assay. The data set is classed as functional, cell-based. Particulars: time 60.0 hrs.
In the next data set the test system is Mitochondrial membrane. The data set is described as follows: Induction of mitochondrial membrane potential loss in human A549 cells assessed as decrease in red fluorescence of JC-1 aggregates at 0.4 to 1.2 uM incubated for 24 hrs with irradiation of LED light at 1.8 mW cm/2 by light microscopy analysis. The data set is classed as cell membranes. Particulars: dose 0.4-1.2 µM.

Data set [2] concerns A549. As to the kind of experiment: Antitumor activity in human A549 cells xenografted in Ab wild type Zebrafish embryos assessed as decrease in tumor growth by measuring fluorescence intensity at 2.9 to 5.8 ng preincubated for 12 hrs followed by irradiation of LED light of 1.8 mW cm/2 for 2 hrs and measured after 48 to 72 hrs. The format is functional, cell-based. The settings on record: dose 2.9-5.8 ng, time 62-86 hrs. On the technique in general: In xenograft studies the graft and the host belong to different species.

The subject of data set [3] is A549. As to the kind of experiment: Induction of apoptosis in human A549 cells assessed as increase in nuclear shrinkage at 2.5 to 5 uM incubated for 30 mins with irradiation of LED light at 1.8 mW cm/2 by Hoechst 33342 staining based light microscopy analysis. The format is functional, cell-based. The settings on record: dose 2.5-5 µM.
For data set [4], the system named is A549. The data set is described as follows: Induction of apoptosis in human A549 cells assessed as upregulation of cleaved Bax expression at 2.5 to 5 uM with irradiation of LED light at 1.8 mW cm/2 by Western blot analysis. The settings on record: dose 2.5-5 µM. The data set is classed as functional, cell-based. Background: Immunoblotting shows a protein as a band on a membrane.

Data set [5] concerns A549. As to the kind of experiment: Activation of ERK1/2 pathway in human A549 cells assessed as effect on ERK protein expression at 2.5 to 5 uM by Western blot analysis. The format is cell-based. Particulars: filed as activator, dose 2.5-5 µM.
In data set [6] the test system is A549. The data set is described as follows: Inhibition of cell migration in human A549 cells at 0.25 uM preincubated for 12 hrs followed by incubation under dark condition and measured after 48 hrs by wound healing assay. The data set is classed as functional, cell-based. The settings on record: time 60.0 hrs.
The target in data set [7] is Signal transducer and activator of transcription 3 (Homo sapiens) (UniProt P40763). The data set is described as follows: Inhibition of STAT3 pathway in human A549 cells assessed as decrease in STAT3 protein expression at 2.5 to 5 uM by Western blot analysis. The data set is classed as cell-based. The settings on record: dose 2.5-5 µM.
Data set [8] can be described thus: Photophysical property of the compound assessed as fluorescence quantum yield. The format is physicochemical.
The subject of data set [9] is A549. The data set is described as follows: Inhibition of cell migration in human A549 cells assessed as appearance of loose cells at 0.25 uM preincubated for 12 hrs followed by LED light irradiation 1.8 mW cm/2 for 2 hrs and measured after 48 hrs by wound healing assay. The data set is classed as functional, cell-based. The settings on record: time 62.0 hrs.
Data set [10] in a line: Developmental toxicity in wild type AB zebrafish assessed as survival rate at 50 uM incubated for 72 hrs under condition relative to control. The settings on record: in vivo. More on the design: species or system Danio rerio.
Data set [11] has as its system A549. The data set is described as follows: Activation of MAPK pathway in human A549 cells assessed as effect on MAPK protein expression at 2.5 to 5 uM by Western blot analysis. The data set is classed as cell-based. Particulars: filed as activator, dose 2.5-5 µM.
Data set [12] can be described thus: Developmental toxicity in wild type AB zebrafish assessed as effect on heart at 50 uM incubated for 72 hrs under dark condition. On the set-up: species or system Danio rerio. The settings on record: in vivo.

Sequence of Signal transducer and activator of transcription 3 (Homo sapiens) (P40763 whole entry): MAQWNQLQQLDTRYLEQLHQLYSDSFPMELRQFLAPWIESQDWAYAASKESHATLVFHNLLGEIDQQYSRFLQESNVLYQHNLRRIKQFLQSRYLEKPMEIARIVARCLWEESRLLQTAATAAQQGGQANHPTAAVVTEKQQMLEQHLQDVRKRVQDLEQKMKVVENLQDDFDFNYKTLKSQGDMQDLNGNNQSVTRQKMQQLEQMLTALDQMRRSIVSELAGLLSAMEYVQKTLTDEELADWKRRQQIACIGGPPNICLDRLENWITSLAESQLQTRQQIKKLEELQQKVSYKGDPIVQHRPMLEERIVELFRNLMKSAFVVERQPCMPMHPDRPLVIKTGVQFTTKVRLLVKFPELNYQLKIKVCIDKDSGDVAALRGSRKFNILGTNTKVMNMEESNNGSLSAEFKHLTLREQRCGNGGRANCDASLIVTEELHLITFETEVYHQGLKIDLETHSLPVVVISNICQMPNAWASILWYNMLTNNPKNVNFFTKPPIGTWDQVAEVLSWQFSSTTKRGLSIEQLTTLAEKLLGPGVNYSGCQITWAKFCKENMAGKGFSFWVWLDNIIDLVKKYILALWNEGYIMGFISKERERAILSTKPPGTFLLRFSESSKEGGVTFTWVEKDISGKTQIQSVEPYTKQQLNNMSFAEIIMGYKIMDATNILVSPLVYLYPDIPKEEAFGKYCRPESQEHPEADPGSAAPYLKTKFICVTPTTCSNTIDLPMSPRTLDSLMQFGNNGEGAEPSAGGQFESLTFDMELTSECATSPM

For the compound `CCN(CC)c1ccc2cc(C(=O)/C=C/c3ccc4c(c3)CN3CN4Cc4cc(Br)ccc43)c(=O)oc2c1`, the inhibition entry (in the data set on A549 [1]; with A549 [6]; in data set [7]; with A549 [9]) was “Active” in each case. The outcome in the data set on Mitochondrial membrane, in the data set on A549 [2], in the data set with A549 [3] and in the data set on A549 [4] was Active. Moreover, the results for the Activity result (with A549 [5]; with A549 [11]; in data set [12]) were “Active; Compound Showed Little Change In Protein Expression”, “Active; Compound Showed Little Change In Protein Expression” and “Non-toxic”, respectively. For the same compound, the Fluorescence quantum yield in data set [8] is listed as 0.12. The survival at 72 h, 50 µM in data set [10] amounted to 100%.
